# Measurements: US6380218B1, “Nicotinamide derivatives” (Pfizer Inc, priority 1997, dated 2002)
row,SMILES,melting point
1,"CC(NC(=O)c1cccnc1Oc1cncc(Cl)c1)c1ccc(Cl)s1 (centres unmarked) [Example 49, 2-(5-Chloro-pyridin-3-yloxy)-N-[1-(5-chloro-thiophen-2-yl)-ethyl]-nicotinamide]",110 to 112 °C
2,"O=C(NCc1ccc(N2CC(O)C2)cc1)c1cccnc1Oc1ccc(F)cc1 [Example 88, 2-(4-Fluoro-phenoxy)-N-[4-(3-hydroxy-azetidin-1-yl)-benzyl]-nicotinamide]",157 to 159 °C
3,"O=C(NCc1ccc(Cl)o1)c1cccnc1Oc1cccnc1 [Example 23, N-(5-Chloro-furan-2-ylmethyl)-2-(pyridin-3-yloxy)-nicotinamide]",80 to 82 °C
4,"CC(C)(C)c1cc(CNC(=O)c2cccnc2Oc2ccc(F)cc2)cc(C(C)(C)C)c1O [Example 76, N-[3,5-Di-tert-butyl-4-hydroxy-benzyl)-2-(4-fluoro-phenoxyl)nicotinamide]",45 to 47 °C
5,"O=C(NCc1ccc2c(c1)OCCC2O)c1cccnc1Oc1cccnc1 (centres unmarked) [Example 41, N-(4-Hydroxy-chroman-7-ylmethyl)-2-(pyridin-3-yloxy)-nicotinamide]",134 to 136 °C
6,"Cc1ccc(CNC(=O)c2cccnc2Oc2cccnc2)o1 [Example 19, N-(5-Methyl-furan-2-ylmethyl)-2-(pyridin-3-yloxy)-nicotinamide]",65 to 67 °C
7,"CC(C)(O)c1cc(Cl)c(CNC(=O)c2cccnc2Oc2cccnc2)s1 [Example 44, N-[3-Chloro-5-(1-hydroxy-1-methyl-ethyl)-thiophen-2-ylmethyl]-2-(pyridin-3-yloxy)-nicotinamide]",74 to 76 °C
8,"CC(C)(O)c1ccc(CNC(=O)c2cccnc2Oc2cncc(Cl)c2)cc1 [Example 59, 2-(5-Chloro-pyridin-3-yloxy)-N-[4-(1-hydroxy-1-methyl-ethyl)-benzyl]-nicotinamide]",78 to 80 °C

# Continued, values first:
row,melting point,SMILES
1,115 to 117 °C,"O=C(NCc1ccc(Cl)s1)c1cccnc1Oc1cccc([N+](=O)[O-])c1 [Example 109, N-(5-Chloro-thiophen-2-ylmethyl)-2-(3-nitro-phenoxy)-nicotinamide]"
2,121 to 123 °C,"O=C(Nc1cccc(Oc2ncccc2C(=O)NCc2ccccc2Cl)c1)Nc1cccc2ccccc12 [Example 139, N-(2-Chloro-benzyl)-2-[3-(3-naphthalen-1-yl-ureido)-phenoxy]-nicotinamide]"
3,163 to 165 °C,"O=C(NCc1ccc(N2CCOCC2)cc1)c1cccnc1Oc1ccc(F)cc1 [Example 91, 2-(4-Fluoro-phenoxy)-N-(4-morpholin-4-yl-benzyl)-nicotinamide]"
4,107 to 109 °C,"CSc1cccc(Oc2ncccc2C(=O)NCc2ccc(C(C)(C)O)cc2)c1 [Example 206, N-[4-(1-Hydroxy-1-methyl-ethyl)-benzyl]-2-(3-methylsulfanyl-phenoxy)-nicotinamide]"
5,127 to 128 °C,"O=C(NCc1ccc(N2CCCC2)cc1)c1cccnc1Oc1ccc(F)cc1 [Example 89, 2-(4-Fluoro-phenoxy)-N-(4-pyrrolidin-1-yl-benzyl)-nicotinamide]"
6,106 to 108 °C,"CC(C)(O)c1ccc(CNC(=O)c2cccnc2Oc2cccc(F)c2)cc1 [Example 202, 2-(3-Fluoro-phenoxy)-N-[4-(1-hydroxy-1-methyl-ethyl)-benzyl]-nicotinamide]"
7,94 to 95 °C,"CC(C)(O)c1ccc(CNC(=O)c2cccnc2Oc2ccc3c(c2)OCO3)c(F)c1 [Example 327, 2-(Benzo[1,3]dioxol-5-yloxy)-N-[2-fluoro-4-(1-hydroxy-1-methyl-ethyl)-benzyl]-nicotinamide]"
8,236 to 238 °C,"O=C(O)c1cc2cc(CNC(=O)c3cccnc3Oc3ccc(F)cc3)ccc2[nH]1 [Example 165, 5-({[2-(4-Fluoro-phenoxy)-pyridine-3-carbonyl]-amino}-methyl)-1H-indole-2-carboxylic acid]"
9,84 to 85 °C,"O=C(CCc1c(F)cc(F)cc1F)c1cccnc1Oc1ccc(F)cc1 [Example 255, 1-[2-(4-Fluoro-phenoxy)-pyridin-3-yl]-3-(2,4,6-trifluoro-phenyl)-propan-1-one]"
